In PMC10221708, “Synthesis and Antimalarial Evaluation of Halogenated Analogues of Thiaplakortone A” (Marine Drugs, 2023):
“Also recorded” adds a separate entry of the source. Where two headings read alike, the source gives them in different places.

Legend:
HEK293 cells [1] = test: In vitro cytotoxicity assay (Alamar Blue); type: cell-based, human; conditions: for IC50: HEK293, 72 h, n = 2
Protocol: Human embryonic kidney cells (HEK293) were maintained in DMEM (Life Technologies, Camarillo, CA, USA) containing 10% FBS (Hyclone™ ThermoFisher, Melbourne, Australia). Cytotoxicity testing was undertaken as previously described. In brief, 5 μL of test compound was added/well of black/clear tissue culture treated 384-well plates containing 3000 adherent HEK293 cells/well in 45 μL and incubated 72 h at 37 °C in 5% CO2. After incubation, the supernatant was removed and replaced with 40 μL of 10% Alamar Blue per well. Plates were incubated for 5–6 h and measured for fluorescence at 530 nm excitation and 595 nm emission. The % inhibition was calculated using 0.4% DMSO (no inhibition) and 5 μM puromycin (100% inhibition) data. IC50 values were obtained by plotting % inhibition against log dose using GraphPad Prism v.6 (San Diego, CA, USA), nonlinear regression with a variable slope plot.

[2] = system: Plasmodium falciparum 3D7; test: In vitro antimalarial image-based asexual assay, 3D7; type: cell-based; conditions: for IC50: Plasmodium falciparum, 3D7, chloroquine-sensitive strain, 72 h, n = 4, read-out: Pf 3D7 IC50 ± SD; for SI for 3D7: SI = HEK293 IC50/parasite IC50
Protocol: (§1) Plasmodium falciparum 3D7 and Dd2 parasites were cultured in RPMI1640 (Life Technologies, Camarillo, CA, USA) supplemented with 2.5 mg/mL Albumax II, 5% AB human serum, 25 mM HEPES and 0.37 mM hypoxanthine. Ring-stage parasites were treated with compounds following two rounds of sorbitol synchronisation as previously described. Artesunate, pyrimethamine and puromycin were incorporated as controls. Following incubation of assay plates for 72 h at 37 °C, and 5% CO2 and 5% O2, parasites were stained with 2-(4-amidinophenyl)-1H-indole-6-carboxamidine (DAPI) and imaged using an Opera QEHS confocal imaging system (PerkinElmer, Waltham, MA, USA). Images were analysed as previously described using Acapella spot detection software (PerkinElmer, Waltham, MA, USA).

[3] = system: Plasmodium falciparum Dd2; test: In vitro antimalarial image-based asexual assay, Dd2; type: cell-based; conditions: for IC50: Plasmodium falciparum, DD2, 72 h, n = 4, read-out: Pf Dd2 IC50 ± SD; for SI for Dd2: SI = HEK293 IC50/parasite IC50
Protocol: as §1

[4] = system: Plasmodium falciparum Dd2; set-up: method as in PMID 24032556; conditions: cited from earlier work; for IC50: drug-resistant strain, read-out: IC50 Pf (Dd2)
HEK293 cells [5] = system: HEK293 cells; set-up: method as in PMID 24032556; conditions: cited from earlier work
[6] = system: Plasmodium falciparum 3D7; set-up: method as in PMID 24032556; conditions: cited from earlier work; for IC50: drug-sensitive strain, read-out: IC50 Pf (3D7)
[7] = Homo sapiens, controls, read-out: HEK293 IC50 ± SD
[8] = controls, drug-resistant strain
[9] = human embryonic kidney cells, mean ± SD
[10] = chloroquine, pyrimethamine and mefloquine drug-resistant strain, mean ± SD
[11] = N-Boc group of compound 7 removed
[12] = bromine at C-2 replaced with iodine

| SMILES | SI for 3D7 [2] | SI for Dd2 [3] | IC50 (HEK293 cells [1]; [9]) | IC50 ([2]; mean ± SD) | IC50 [3, 10] | further results |
| --- | --- | --- | --- | --- | --- | --- |
| C[C@H]1[C@H](OC(=O)CCC(=O)O)O[C@@H]2O[C@@]3(C)CC[C@H]4[C@H](C)CC[C@@H]1[C@@]24OO3 [Artesunate, reference compound] | >8163 | >10,526 | – | – | – | IC50 (HEK293 cells [1]; [7]): > 4000 nM; IC50 ([2]; controls): 0.49 ± 0.2 nM; IC50 [3, 8]: 0.38 ± 0.01 nM |
| NCCc1c[nH]c2c1C(=O)C1=C(NC=CS1(=O)=O)C2=O [Compound 1, thiaplakortone A] | 22 | 150 | 1320 ± 92 nM | 61 ± 9 nM | 8 ± 1 nM | selectivity index against Dd2 ([4]; HEK293 vs Dd2): 591; IC50 [4]: 6.6 nM; cytotoxicity against HEK293 cells (HEK293 cells [5]): low cytotoxicity; selectivity index against 3D7 ([6]; HEK293 vs 3D7): 76; IC50 [6]: 51 nM |
| CC(C)(C)OC(=O)NCCc1c[nH]c2c1C(=O)C1=C(NC=CS1(=O)=O)C2=O [Compound 2, Boc-protected thiaplakortone A] | 24 | 64 | 5530 ± 21 nM | 227 ± 44 nM | 86 ± 12 nM | – |
| CC(C)(C)OC(=O)NCCc1c[nH]c2c1C(=O)C1=C(NC=C(Br)S1(=O)=O)C2=O [Compound 3] | >23 | >137 | > 80000 nM | 3520 ± 350 nM | 583 ± 94 nM | – |
| CC(C)(C)OC(=O)NCCc1c(Br)[nH]c2c1C(=O)C1=C(NC=C(Br)S1(=O)=O)C2=O [Compound 4] | >58 | >39 | > 80000 nM | 1370 ± 117 nM | 2060 ± 192 nM | fold decrease in antimalarial activity against 3D7 upon removal of the Boc group ([2]; compound 4 after Boc removal): 1.2 fold |
| NCCc1c[nH]c2c1C(=O)C1=C(NC=C(Br)S1(=O)=O)C2=O [Compound 5] | >143 | >1379 | > 80000 nM | 559 ± 145 nM | 58 ± 16 nM | cytotoxicity against HEK293 cells observed at 80 μM (HEK293 cells [1]; 80 μM (top screening concentration)): minimal cytotoxicity; also recorded: minimal toxicity |
| NCCc1c(Br)[nH]c2c1C(=O)C1=C(NC=C(Br)S1(=O)=O)C2=O [Compound 6] | >48 | >164 | > 80000 nM | 1650 ± 194 nM | 487 ± 98 nM | – |
| CC(C)(C)OC(=O)NCCc1c[nH]c2c1C(=O)C1=C(NC=C(I)S1(=O)=O)C2=O [Compound 7] | >14 | >67 | > 80000 nM | 5620 ± 383 nM | 1190 ± 270 nM | – |
| CC(C)(C)OC(=O)NCCc1c(I)[nH]c2c1C(=O)C1=C(NC=C(I)S1(=O)=O)C2=O [Compound 8] | >49 | >121 | > 80000 nM | 1620 ± 154 nM | 659 ± 119 nM | – |
| NCCc1c[nH]c2c1C(=O)C1=C(NC=C(I)S1(=O)=O)C2=O [Compound 9] | >36 | >252 | > 80000 nM | 2220 ± 248 nM | 317 ± 8 nM | fold increase of antimalarial activity against 3D7 versus compound 7 [2, 11]: 2.5 fold; fold reduction of antimalarial activity against 3D7 versus compound 5 [2, 12]: 3.9 fold; fold increase of antimalarial activity against Dd2 versus compound 7 [3, 11]: 3.7 fold; fold reduction of antimalarial activity against Dd2 versus compound 5 [3, 12]: 5.5 fold |
| NCCc1c(I)[nH]c2c1C(=O)C1=C(NC=C(I)S1(=O)=O)C2=O [Compound 10] | >47 | >110 | > 80000 nM | 1680 ± 316 nM | 725 ± 244 nM | – |
| NCCc1c(C(F)(F)F)[nH]c2c1C(=O)C1=C(NC=C(C(F)(F)F)S1(=O)=O)C2=O [Compound 11] | >12 | >18 | > 80000 nM | 6800 ± 2440 nM | 4550 ± 1150 nM | – |
| COc1ccc(C[C@H](N)C(=O)N[C@H]2[C@@H](O)[C@H](n3cnc4c(N(C)C)ncnc43)O[C@@H]2CO)cc1 [Puromycin, reference compound] | 33 | 61 | – | – | – | IC50 (HEK293 cells [1]; [7]): 1040 ± 66 nM; IC50 ([2]; controls): 31.9 ± 16.2 nM; IC50 [3, 8]: 17 ± 3.96 nM |
| CCc1nc(N)nc(N)c1-c1ccc(Cl)cc1 [Pyrimethamine, reference compound] | >10,666 | – | – | – | – | IC50 (HEK293 cells [1]; [7]): > 40000 nM; IC50 ([2]; controls): 3.75 ± 0.3 nM; IC50 [3, 8]: > 40000 nM |
| NCCc1c[nH]c2c1C(=O)C1=C(NCCS1(=O)=O)C2=O [Thiaplakortone B] | – | – | – | – | – | IC50 [4]: 92 nM; IC50 [6]: 650 nM |
| CN[C@@H](Cc1c[nH]c2c1C(=O)C1=C(NC=CS1(=O)=O)C2=O)C(=O)O [Thiaplakortone C] | – | – | – | – | – | IC50 [4]: 170 nM; IC50 [6]: 310 nM |
| CN[C@@H](Cc1c[nH]c2c1C(=O)C1=C(C2=O)S(=O)(=O)C=CN1)C(=O)O [Thiaplakortone D] | – | – | – | – | – | IC50 [4]: 160 nM; IC50 [6]: 280 nM |
